Measured values as given in patent publication US20230220047A1, “PEPTIDES FOR TREATMENT OF SEPSIS AND CANCER” (NORWEGIAN UNIVERSITY OF SCIENCE AND TECHNOLOGY (NTNU), priority 2020, published 2023).
“Also recorded” adds a separate entry of the source.

Legend:
[1] = test system: RPMI 8226 multiple myeloma cells; test: CellTiter-Glo cell viability assay, RPMI 8226; type: cell-based, human; conditions: RPMI 8226, 10 μM, 48 h
Description: Minor effects on the proliferation of the IH-1 and RPMI 8226 cell lines are seen. Cells were seeded at the level shown (left-hand bar of each set) then incubated in medium containing water, 10 μM penetratin or 10 μM P7-A4-Pen for 48 hr (except for INA-6 cells, which were incubated with 12.5 μM penetratin or 12.5 μM P7-A4-Pen). The number of viable cells was detected based on quantitation of ATP by luminescent signal in correlation to a standard curve prepared for each cell line. Results are based on 3-5 biological replicates for each condition, error bars show standard deviation of mean.
Multiple myeloma cells JJN-3 (DSMZ (Germany) no. ACC 541), ANBL-6 (Cellosaurus accession number CVCL_5425, obtained from Dr Diane Jelinek, Mayo Clinic, Rochester, Minn.), INA-6 (Cellosaurus accession number CVCL_5209, obtained from Dr M. Gramatzki, University of Erlangen-Nurnberg, Erlangen, Germany), RPMI-8226 (ATCC CCL-155), and IH-1 (Cellosaurus accession number CVCL_WZ44, established from the pleural effusion of a myeloma patient by Myeloma research group, IKOM, NTNU, Trondheim, Norway) were grown in RPMI-1640 (Sigma-Aldrich Norway, Oslo, Norway) supplemented with 100 nM penicillin/streptomycin and 10% FCS, and for ANBL-6, IH-1 and INA-6 cells 2 ng/ml recombinant IL-6 (Gibco, Thermo Fisher Scientific, Waltham, Mass., USA). […]

TLR7 = test: qPCR of R837-induced TLR7-mediated cytokine expression in human monocytes; type: cell-based; conditions: 15 μM, R837 1 μg/ml
Description: Cells were pre-treated with 15 μM peptides for 30 min, followed by the addition of LPS (100 ng/ml) (A), R837 (1 μg/ml) (B) or CL075 (1 μg/ml) for increasing lengths of time.
As previously shown, P7-Pen inhibits TLR8-mediated IFNβ expression in human monocytes, without significant effect on the expression of pro-inflammatory cytokines. Human cells express one more endosomal RNA sensor in addition to TLR8: TLR7, which uses similar signaling pathways to induce cytokine expression as the TLR8 receptor. To investigate the effect of P7-Pen on TLR7-mediated signaling, human monocytes were stimulated with imiquimod (R837), an imidazoquinoline amine analog to guanosine, which activates only TLR7, not TLR8 (Lee et al., PNAS 100(11): 6646-6651 (2003)). […] TNF and IL-1β expression were not induced in monocytes by the R837 TLR7 agonist even in control treated cells (FIG. 18C).

THP-1 TRAM KO cells = test: qPCR of LPS-mediated cytokine expression in THP-1 TRAM KO cells; type: cell-based, human; conditions: 10 μM, LPS 100 ng/ml 2 or 4 h
Description: Control THP-1 CRISPR cells and TRAM KO cells were pre-treated with 10 μM peptides—control peptides with amino acid substitutions (C3-Pen) or TRAM-targeting peptide Pep7-Penetratin (P7-Pen)—for 30 min before stimulation with LPS (100 ng/ml) for 2 or 4 h. Cells were lysed with Qiazol, followed by RNA isolation and quantitative PCR analysis of cytokine mRNA expression.
In human cells (THP-1 cell line) TRAM expression was not required for TLR4-mediated IL-1β or TNF expression in response to LPS or E. coli particles (FIG. 21, lower panels). P7-Pen was as effective in reducing expression of pro-inflammatory cytokines in THP-1 TRAM KO cells as in control cells (FIG. 22).

TLR4 = test: Primary human macrophages stimulated with LPS: cytokine mRNA and p38 MAPK phosphorylation; type: cell-based; conditions: primary human macrophages (data not shown)
Description: Primary human macrophages (PBMC derived, differentiated in media with 10% human serum and M-CSF 20 ng/ml, 7 days) were stimulated with K12 LPS (100 ng/ml), FSL-1 (100 ng/ml) or CL075 (3 μg/ml). […] (B) qPCR for mRNA expression of IFNβ, IL-6, TNF and IL-1β, average for three biological replicates, error bars ±SD.
The effect of P7-Pen on TLR2-mediated pro-inflammatory cytokine expression was investigated.

Substance	cell proliferation [1]	TLR7-mediated IFNβ mRNA expression (TLR7)	TLR7-mediated IL-6 expression (TLR7)	reducing expression of pro-inflammatory cytokines in THP-1 TRAM KO cells versus control cells (THP-1 TRAM KO cells)	TLR4-mediated expression of TNF, IL-6 and IL-1β mRNA (TLR4)
Ac-ITVAASVTLTGRQIKIWFQNRRMKWKK-NH2 [Peptide P7-A4-Pen]	Minor effects; also recorded: inhibited cell proliferation	–	–	–	–
Ac-ITVYASVTLTGRQIKIWFQNRRMKWKK-NH2 [Peptide P7-Pen]	–	inhibits	delayed activation	as effective	totally abrogated
